In patent US9120820B2, “Fluorescent molecular probes for use in assays that measure test compound competitive binding with SAM-utilizing proteins” (CAYMAN CHEMICAL COMPANY, INCORPORATED, priority 2011, dated 2015):
Like-named read-outs stand apart in the source and are kept apart here.

Columns and labels:
Sumo = assay: Fluorescence polarization saturation binding of fluorescent probe to Sumo (control protein); settings: saturation-binding format, read-out: Sinefungin Probe 1A Affinity
Procedure: (§1) Sinefungin Probe 1A was tested for the ability to bind to 16 proteins, including several non-methlytransferase protein controls (Table 2). This probe binds to 4 methyltransferases (SET7/9, G9a, GLP, MLL) with Kd values <2 μM.

G9a = target: T1, G9a (Homo sapiens, UniProt Q96KQ7); assay: Fluorescence polarization saturation binding of fluorescent probe to G9a
T1 construct: purchased Cayman 49010353
T1 sequence (Q96KQ7 1-1210): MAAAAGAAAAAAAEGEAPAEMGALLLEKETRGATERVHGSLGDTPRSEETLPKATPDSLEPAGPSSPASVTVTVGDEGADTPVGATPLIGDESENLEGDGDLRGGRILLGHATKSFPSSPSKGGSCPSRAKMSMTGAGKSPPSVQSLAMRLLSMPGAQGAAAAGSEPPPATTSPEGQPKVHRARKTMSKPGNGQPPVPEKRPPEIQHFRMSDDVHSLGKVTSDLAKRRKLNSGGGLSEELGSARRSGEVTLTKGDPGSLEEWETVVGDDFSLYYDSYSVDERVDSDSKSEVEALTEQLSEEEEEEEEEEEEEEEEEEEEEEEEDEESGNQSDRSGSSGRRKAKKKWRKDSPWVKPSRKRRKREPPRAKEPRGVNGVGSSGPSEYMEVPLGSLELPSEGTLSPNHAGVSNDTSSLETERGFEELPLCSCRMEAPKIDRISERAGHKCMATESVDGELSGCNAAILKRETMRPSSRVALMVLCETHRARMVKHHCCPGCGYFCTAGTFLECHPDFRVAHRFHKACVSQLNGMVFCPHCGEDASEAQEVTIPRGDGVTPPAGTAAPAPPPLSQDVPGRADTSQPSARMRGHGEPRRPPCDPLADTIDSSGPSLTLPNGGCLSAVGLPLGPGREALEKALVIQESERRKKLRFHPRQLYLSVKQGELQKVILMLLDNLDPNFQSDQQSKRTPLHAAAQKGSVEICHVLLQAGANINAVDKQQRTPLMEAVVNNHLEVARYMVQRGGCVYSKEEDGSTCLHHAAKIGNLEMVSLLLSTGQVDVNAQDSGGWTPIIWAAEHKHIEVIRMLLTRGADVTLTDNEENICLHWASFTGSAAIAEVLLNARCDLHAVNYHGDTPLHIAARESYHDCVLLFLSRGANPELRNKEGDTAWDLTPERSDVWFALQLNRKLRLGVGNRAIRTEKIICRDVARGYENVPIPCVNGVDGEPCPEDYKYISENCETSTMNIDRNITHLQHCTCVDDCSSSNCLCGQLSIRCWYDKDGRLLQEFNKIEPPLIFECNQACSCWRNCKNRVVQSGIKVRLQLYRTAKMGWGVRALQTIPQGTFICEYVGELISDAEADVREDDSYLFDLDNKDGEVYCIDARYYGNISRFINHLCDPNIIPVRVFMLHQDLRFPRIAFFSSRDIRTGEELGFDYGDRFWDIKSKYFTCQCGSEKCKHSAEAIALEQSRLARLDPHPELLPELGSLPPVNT
Procedure: Methods: The experiment was performed once, with two replicate wells for all methyltransferases per condition. The sole exception to this is NSD2 (see details below). The assay was performed in a ½ area, black, 96-well plate (Corning #3686) in a final volume of 30 μL. Methyltransferases (Table 1) were serially diluted two-fold in FP buffer (Cayman Catalog #600028) and 15 μL of a given dilution were added per well to the assay plate. Fifteen microliters of sinefungin probe 1A (10 nM) were added to each well, giving a final sinefungin probe 1A concentration of 5 nM. This concentration of sinefungin probe 1A was chosen because it had at least a 10-fold increase in fluorescence (excitation max 575 nm/emission max 615 nm) over background (buffer). The mixture was incubated in the dark at room temperature for 30 minutes and its fluorescence polarization was read using a BioTek Synergy 4.

PRMT4 = target: T2, PRMT4 (Homo sapiens, UniProt Q86X55); assay: Fluorescence polarization saturation binding of fluorescent probe to PRMT4; settings: saturation-binding format, read-out: Sinefungin Probe 1A Affinity
T2 construct: made in house
T2 sequence (Q86X55 1-608): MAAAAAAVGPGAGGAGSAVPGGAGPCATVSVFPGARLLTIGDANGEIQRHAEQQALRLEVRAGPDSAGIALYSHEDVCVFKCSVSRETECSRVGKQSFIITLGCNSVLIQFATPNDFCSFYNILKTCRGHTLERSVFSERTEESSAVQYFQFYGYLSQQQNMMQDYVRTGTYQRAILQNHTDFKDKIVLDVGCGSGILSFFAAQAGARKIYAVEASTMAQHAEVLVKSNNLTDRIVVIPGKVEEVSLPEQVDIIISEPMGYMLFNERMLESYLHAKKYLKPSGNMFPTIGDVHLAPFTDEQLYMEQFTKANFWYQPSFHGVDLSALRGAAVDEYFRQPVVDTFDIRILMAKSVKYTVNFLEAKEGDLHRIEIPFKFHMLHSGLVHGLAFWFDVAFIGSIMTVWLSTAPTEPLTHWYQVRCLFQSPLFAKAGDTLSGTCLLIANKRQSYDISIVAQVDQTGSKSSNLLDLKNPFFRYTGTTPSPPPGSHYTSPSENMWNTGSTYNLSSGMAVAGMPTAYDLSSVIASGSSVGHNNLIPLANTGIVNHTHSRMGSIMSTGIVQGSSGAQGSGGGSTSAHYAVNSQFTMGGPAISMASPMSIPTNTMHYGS
Procedure: as §1

ASH2L = ASH2L (Homo sapiens, UniProt Q9UBL3); assay: Fluorescence polarization saturation binding of fluorescent probe to ASH2L; settings: saturation-binding format, read-out: Sinefungin Probe 1A Affinity
ASH2L, sequence (Q9UBL3 whole entry, species assumed): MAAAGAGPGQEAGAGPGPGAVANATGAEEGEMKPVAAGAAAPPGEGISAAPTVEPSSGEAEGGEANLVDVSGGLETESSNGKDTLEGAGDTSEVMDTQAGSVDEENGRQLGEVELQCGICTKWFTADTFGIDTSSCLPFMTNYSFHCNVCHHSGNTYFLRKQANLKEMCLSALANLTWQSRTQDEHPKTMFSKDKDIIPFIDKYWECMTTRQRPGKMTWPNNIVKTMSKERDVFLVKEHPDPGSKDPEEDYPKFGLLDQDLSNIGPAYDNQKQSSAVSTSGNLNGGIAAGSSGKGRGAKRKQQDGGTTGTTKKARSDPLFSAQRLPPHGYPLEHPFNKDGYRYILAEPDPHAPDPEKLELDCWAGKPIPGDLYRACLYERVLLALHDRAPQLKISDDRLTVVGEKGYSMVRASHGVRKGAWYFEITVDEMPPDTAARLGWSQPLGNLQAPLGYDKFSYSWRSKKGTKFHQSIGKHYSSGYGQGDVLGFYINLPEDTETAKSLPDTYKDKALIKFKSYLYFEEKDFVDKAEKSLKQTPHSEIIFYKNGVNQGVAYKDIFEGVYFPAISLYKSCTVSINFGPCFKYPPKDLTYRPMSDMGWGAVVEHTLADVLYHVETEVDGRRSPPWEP
Procedure: as §1

- Kd (Sumo): > 10000 nM
- Kd (G9a; Example 8, G9a, 5 nM probe, experiment performed once, FIG. 2, read-out: Kd): ~700 nM
- Kd (G9a; G9a, saturation-binding format, mean ± SEM, read-out: Sinefungin Probe 1A Affinity): 1800 ± 1000 nM
- Kd (PRMT4): > 2000 nM
- Kd (ASH2L): > 10000 nM
SMILES: Nc1ncnc2c1ncn2[C@@H]1O[C@H](C[C@@H](N)CC[C@H](N)C(=O)O)[C@@H](OCc2cnnn2CCCCCCNC(=O)OC2CCN(C(=O)c3ccccc3C3=c4cc5c6c(c4Oc4c3cc3c7c4CCCN7CCC3)CCC[N+]=6CCC5)CC2)[C@H]1O [Sinefungin Probe 1A]
